The record followed here is patent US20230339878A1, “SLC26A3 INHIBITORS AND USE THEREOF” (THE REGENTS OF THE UNIVERSITY OF CALIFORNIA, priority 2018, published 2023).

Entries after “also recorded” stand apart in the source; their conditions may differ.

In experiment [1] the target is T1, slc26a9 (Mus musculus, UniProt Q8BU91).
T1 construct: host or cells: HEK293 cells
T1 sequence (Q8BU91 1-790): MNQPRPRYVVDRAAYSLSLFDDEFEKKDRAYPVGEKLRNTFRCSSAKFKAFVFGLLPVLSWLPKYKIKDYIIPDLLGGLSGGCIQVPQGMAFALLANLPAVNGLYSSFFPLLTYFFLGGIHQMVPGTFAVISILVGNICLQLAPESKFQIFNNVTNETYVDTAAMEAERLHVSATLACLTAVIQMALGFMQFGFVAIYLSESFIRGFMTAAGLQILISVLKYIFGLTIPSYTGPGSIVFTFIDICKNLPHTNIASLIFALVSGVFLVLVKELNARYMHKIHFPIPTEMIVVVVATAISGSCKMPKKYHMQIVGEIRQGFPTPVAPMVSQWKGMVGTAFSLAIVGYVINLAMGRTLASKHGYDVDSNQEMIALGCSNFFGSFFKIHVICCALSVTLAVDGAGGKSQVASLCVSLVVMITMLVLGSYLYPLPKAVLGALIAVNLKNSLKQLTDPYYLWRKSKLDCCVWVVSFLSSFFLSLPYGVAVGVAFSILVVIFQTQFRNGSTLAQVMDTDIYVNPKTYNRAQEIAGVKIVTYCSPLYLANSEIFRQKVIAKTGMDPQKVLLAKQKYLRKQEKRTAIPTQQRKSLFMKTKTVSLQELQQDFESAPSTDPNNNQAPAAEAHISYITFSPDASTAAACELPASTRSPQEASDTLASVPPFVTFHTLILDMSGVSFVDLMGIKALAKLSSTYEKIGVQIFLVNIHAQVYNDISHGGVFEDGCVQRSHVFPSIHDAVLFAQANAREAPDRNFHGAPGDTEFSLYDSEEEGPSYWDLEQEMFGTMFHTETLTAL
Briefly: Selectivity: slc26a9 Cl-/I- exchange in HEK293 cells. The experiment is classed as cell-based, murine. The following applies: 10 µM. An excerpt:
To investigate Compound A1 selectivity, transport assays were done on a panel of SLC26-family homologs, and other relevant epithelial ion transporters and channels. […] In separate studies, to investigate possible action of Compound A1 on multiple ion transporters and channels in a human epithelium, human bronchial epithelial (HBE) cells were studied by short-circuit current, with successive additions of amiloride (to block the epithelial sodium channel ENaC), forskolin, CFTRinh-172 (to block CFTR), and ATP (to activate the Ca^2+-activated chloride channel, CaCC) (FIG. 5C).
HEK293 cells transfected with pIRES-YFP-slc26a9 were plated in 96-well black-walled, clear-bottom tissue culture plates (Corning Life Sciences, Tewksbury, MA) after coating with FNC Coating Mix (AthenaES, Baltimore, MD). […] Assays of slc26a9-mediated anion exchange were done by initially recording YFP fluorescence prior to addition of 100 µL of NaI-substituted PBS to test wells, with the initial rate of Cl^-/I^- exchange deduced from fluorescence intensity by single exponential regression. […] To assay SLC26A3 function, HEK293 cells transduced with lentiviral particles generated from the pLVX-IRES-mCherry-SLC26A3 transfer vector were transfected to express YFP for Cl^-/I^- exchange assays as described above; red fluorescence images were acquired to confirm SLC26A3 expression in cells. […]

Experiment [2] deals with mouse distal colonic closed loops. Briefly: Closed distal colonic loop fluid absorption in mice. The experiment is classed as in vivo. To be noted: 10 µM intraluminal, 60 min. The procedure: Female CD1 mice (age 8-10 weeks) were given free access to Pedialyte (per liter: Na^+ 45 mEq, Cl^- 35 mEq, K^+ 20 mEq, dextrose 25 g; Abbott, Abbot Park, IL) but not solid food for 48 h before experiments. Mice were treated with 500 µL mineral oil once a day rectally (last dose 12 h before surgeries) during this period to evacuate the colon. Closed intestinal loops were isolated as described. Mice were anesthetized with isoflurane and body temperature was maintained during surgery at 36-38° C. using a heating pad. A small abdominal incision was made to expose the distal colon, and one closed distal colonic loop (length 1.5-2 cm) was isolated with sutures in each mouse. Loops were injected with 100 µL phosphate-buffered saline (PBS, pH: 7.4, in mM: 137 NaCl, 2.7 KCl, 8 Na2HPO4, 1.8 KH2PO4, 1 CaCl2, 0.5 MgCl2) without and with 10 µM Compound A1 and/or 10 µM tenapanor (MedChemExpress, Monmouth Junction, NJ). The abdominal incision was closed with sutures, and mice were allowed to recover from anesthesia. Colonic loops were removed at 0 and 60 min (in separate mice) and loop length and weight were measured to quantify fluid absorption. Luminal fluid was emptied with a syringe and pH was measured immediately using AB15 pH Meter (Thermo Fisher Scientific, South San Francisco, CA). In separate studies, mid-jejunal loops (length 2-3 cm, 3-4 loops per mouse) were isolated as described above, injected with 100 µL PBS without or with 10 µM Compound A1 and/or 10 µM tenapanor, and excised at 0 and 30 min to measure loop length and weight.
Closed intestinal loop studies in mice were done to study effects of Compound A1 on fluid absorption. […] Changes in luminal pH were also determined as a semi-quantitative measure of slc26a3-facilitated HCO3^- secretion / C1^- absorption, with slc26a3 inhibition predicted to reduce luminal fluid alkalinization. For these experiments, a phosphate-buffered solution (PBS) without HCO3^- / CO2 was used to avoid confounding effects of luminal carbonic anhydrases. […] Administration of the NHE3 (Na^+/H^+ exchanger 3) inhibitor tenapanor had no effect on weight/length ratio or luminal pH in distal colonic loops.

Consider `Cc1c(CC(=O)O)c(=O)oc2c(C)c(OCc3cccc(Br)c3)ccc12` [Compound A1], for which the “effect on Cl-/I- exchange activity of slc26a9” value in experiment [1] is “did not alter; also recorded: differences not significant”. In addition, in experiment [2], the “loop weight/length ratio (fluid absorption), distal colonic loops” value is on record as “completely prevented the reduction in loop weight/length ratio; also recorded: blocked fluid absorption in closed colonic loops; also recorded: inhibits intestinal fluid absorption in mouse distal colon” and the “luminal pH, distal colonic loops” value is listed as “reduced alkalinization of luminal fluid”.
